From ChEMBL document CHEMBL1201862, “PubChem BioAssay data set” (2004) come the findings set out here.

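The compound was tested at five concentrations on cells cultured in 96-well plates, with a 48-hour exposure period. Here, GI50 denotes the concentration required for 50% inhibition of growth.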 Activity calls are given as the source filed them. No stated cut-off is given here; in the data, active = GI50 up to about 1.1 µM and inactive = higher. Where only a bound is given, the exact number is not on record here.

Among the test systems are HCT-15; EKVX; A549; SN12C; SF-295; SK-MEL-5; SK-MEL-2; OVCAR-8; HT-29; RXF 393; MDA-MB-435; UACC-62; UO-31; MOLT-4; UACC-257; HL-60; HOP-92; SF-539; Malme-3M; LOX IMVI.
Holding throughout (experiment): NCI tumour cell line growth inhibition, 48 h

Take `NS(=O)(=O)c1ccc(NCc2cnc3ccccc3c2)cc1`: the GI50 with HCT-15 was more than 100 µM; in the test with EKVX, > 100 µM (inactive); with A549, > 100 µM (inactive); in the test on SN12C, > 100 µM (inactive); with SF-295 it was > 100 µM (inactive); in the test on SK-MEL-5, > 100 µM (inactive). Further, the GI50 was > 100 µM (inactive) with SK-MEL-2; 34.7 µM (inactive) with OVCAR-8; > 100 µM (inactive) with HT-29; > 100 µM (inactive) in the test on RXF 393; > 100 µM (inactive) in the test with MDA-MB-435; > 100 µM (inactive) in the test with UACC-62. Further, the GI50 in the test with UO-31 is > 100 µM (inactive); with MOLT-4, > 100 µM (inactive); in the test with UACC-257 it was > 100 µM (inactive); with HL-60 it was 0.412 µM (active); with HOP-92, 49.8 µM (inactive); in the test with SF-539, 30.5 µM (inactive). For the same molecule, the GI50 in the test on Malme-3M was > 100 µM (inactive).
As to `N#CC1C(=O)NC2=C(CCOc3c2ccc2ccccc32)C1c1ccc(F)cc1` (configuration not stated), the GI50 in the test on HCT-15 was 38.5 µM; in the test on EKVX it was 36 µM (inactive); in the test with A549, 25.2 µM (inactive); with SN12C it was 10.8 µM (inactive); in the test on SF-295, 20.4 µM (inactive); in the test with SK-MEL-5, 21.5 µM (inactive). Besides, the GI50 in the test with SK-MEL-2 was 29.8 µM (inactive); in the test with OVCAR-8, 33.3 µM (inactive); in the test with RXF 393 it was 15 µM (inactive); in the test with MDA-MB-435 it was 40.9 µM (inactive); with UO-31 it was 12.1 µM (inactive); in the test on MOLT-4, 37.6 µM (inactive). Besides, the GI50 is > 100 µM (inactive) with UACC-257; > 100 µM (inactive) in the test with HL-60; 7.46 µM (inactive) in the test with HOP-92; 44.8 µM (inactive) in the test on SF-539; 27.8 µM (inactive) in the test with Malme-3M.
As for `CCCCCCCCCCCCN1[C@H]2CCC[C@H]2C(O)[C@@H]2CCC[C@@H]21` (some centres not stated), the GI50 in the test on LOX IMVI was 81.8 µM (inactive); with HCT-15, 56.4 µM; in the test with A549, > 100 µM (inactive); with SN12C, 52.8 µM (inactive); in the test with SK-MEL-5, 58.2 µM (inactive); in the test on SK-MEL-2, > 100 µM (inactive). Moreover, the GI50 in the test on OVCAR-8, in the test with HT-29, with RXF 393, in the test on MDA-MB-435, with UACC-62 and with MOLT-4 was > 100 µM (inactive) throughout. In addition, the GI50 in the test on UACC-257 is > 100 µM (inactive); with HL-60 it was 33.8 µM (inactive); with HOP-92, > 100 µM (inactive).
As for `O=C(NCc1ccc(Cl)c(Cl)c1)c1nc2ccccc2nc1NCc1ccc(Cl)c(Cl)c1`, the GI50 in the test on LOX IMVI is > 100 µM (inactive); in the test on HCT-15 it was more than 100 µM; with EKVX it was > 100 µM (inactive); with A549 it was > 100 µM (inactive); in the test with SN12C, > 100 µM (inactive); with SF-295 it was > 100 µM (inactive). For the same molecule, the GI50 in the test on SK-MEL-5, in the test with SK-MEL-2, with OVCAR-8, in the test on HT-29, in the test with RXF 393 and in the test on MDA-MB-435 was > 100 µM (inactive) throughout. Moreover, the GI50 in the test on UACC-62, in the test on UO-31, with UACC-257, in the test with HL-60, with HOP-92 and in the test with SF-539 was > 100 µM (inactive) in each case.
As to `CC(NC(=O)C(OC(=O)C(C)NC(=O)OC(C)(C)C)C(C)C)C(=O)OC(C(=O)O)C(C)C` (configuration not stated), the GI50 is more than 100 µM in the test with HCT-15; > 100 µM (inactive) in the test on EKVX; > 100 µM (inactive) with A549; > 100 µM (inactive) in the test on SN12C; > 100 µM (inactive) with SF-295; > 100 µM (inactive) with SK-MEL-5. Moreover, the GI50 with SK-MEL-2, with OVCAR-8, in the test on HT-29, in the test on RXF 393, with MDA-MB-435 and with UACC-62 was > 100 µM (inactive) in each case. Further, the GI50 in the test with UO-31, in the test on MOLT-4, with UACC-257, with HOP-92, in the test with SF-539 and in the test on Malme-3M was > 100 µM (inactive) throughout.
Turning to `CC1(C)C(=O)C=CC2(C)C1CC(O)C1(C)C2CCC2(C)C(c3ccoc3)OC(=O)C3OC321` (configuration not stated), the GI50 is 15.7 µM (inactive) in the test on LOX IMVI; 10.6 µM in the test on HCT-15; 12.5 µM (inactive) with EKVX; 19.2 µM (inactive) in the test with A549; 18.7 µM (inactive) with SN12C; 20 µM (inactive) with SF-295. The GI50 in the test with SK-MEL-5 is 6.43 µM (inactive); with SK-MEL-2, 11.8 µM (inactive); in the test with OVCAR-8, 13.3 µM (inactive); with HT-29, 17.1 µM (inactive); with RXF 393, 15 µM (inactive); in the test with MDA-MB-435, 23.7 µM (inactive). Besides, the GI50 is 12.6 µM (inactive) with UACC-62; 11.4 µM (inactive) in the test on UO-31; 5.87 µM (inactive) with MOLT-4; > 10 µM (inactive) with UACC-257; 16.4 µM (inactive) in the test with HOP-92; > 10 µM (inactive) in the test on SF-539.
`Oc1c(C2=NNC(c3ccc(Cl)cc3Cl)C2)ccc2ccccc12` (configuration not stated): the GI50 in the test on HCT-15 was 34.9 µM; with A549, 29 µM (inactive); with SN12C it was 32.6 µM (inactive); in the test on SF-295, 28.3 µM (inactive); in the test with SK-MEL-5, 52 µM (inactive); with SK-MEL-2, 35.8 µM (inactive). Besides, the GI50 in the test with OVCAR-8 was 29.4 µM (inactive); with HT-29, 31.4 µM (inactive); in the test on RXF 393 it was 37.9 µM (inactive); in the test with MDA-MB-435 it was 22.8 µM (inactive); in the test on UACC-62, 40.6 µM (inactive); in the test with UO-31 it was 54.3 µM (inactive). The GI50 in the test with MOLT-4 was 5.7 µM (inactive); with UACC-257, 42.3 µM (inactive); in the test with HOP-92, 31.7 µM (inactive); in the test with SF-539 it was 30.5 µM (inactive); with Malme-3M, 17.9 µM (inactive).
For the molecule `CC12CCC([C@H](C(O)C3CCCCC3)C1=O)C2(C)C` (some centres not stated), the GI50 with LOX IMVI was > 100 µM (inactive); in the test on HCT-15, more than 100 µM; with EKVX, > 100 µM (inactive); in the test with SN12C it was > 100 µM (inactive); with SF-295 it was > 100 µM (inactive); with SK-MEL-5, 82.2 µM (inactive). Further, the GI50 in the test on SK-MEL-2 is > 100 µM (inactive); in the test with OVCAR-8, > 100 µM (inactive); in the test on RXF 393, 75.2 µM (inactive); in the test with MDA-MB-435, > 100 µM (inactive); in the test on UACC-62, > 100 µM (inactive); in the test with UO-31, > 100 µM (inactive). Besides, the GI50 in the test on MOLT-4 is 44.3 µM (inactive); in the test on UACC-257, > 100 µM (inactive); in the test on HL-60 it was 13.9 µM (inactive); with HOP-92, > 100 µM (inactive); in the test with SF-539, > 100 µM (inactive).
`O=c1[nH]nc(Cc2ccc(Cl)cc2)n1/N=C/c1cccs1`: the GI50 with HCT-15 is more than 100 µM; with EKVX, 23 µM (inactive); in the test on A549 it was 64.9 µM (inactive); with SN12C, 29.2 µM (inactive); with SF-295 it was 18.9 µM (inactive); with SK-MEL-2 it was 22.4 µM (inactive). The GI50 is 27.5 µM (inactive) with OVCAR-8; 14 µM (inactive) in the test on HT-29; 15.5 µM (inactive) with RXF 393; > 100 µM (inactive) in the test on MDA-MB-435; > 100 µM (inactive) in the test with UACC-62; 46.2 µM (inactive) with UO-31. The GI50 in the test with MOLT-4 was > 100 µM (inactive); in the test on UACC-257, > 100 µM (inactive); with HL-60, > 100 µM (inactive); in the test with HOP-92 it was 24.6 µM (inactive); in the test on SF-539, 41.3 µM (inactive); with Malme-3M, > 100 µM (inactive).
For `CC1(C)CC(=O)C(=CN2C(=O)CNC2=S)C(=O)C1`, the GI50 in the test with HCT-15 was more than 100 µM; with EKVX it was > 100 µM (inactive); with A549, > 100 µM (inactive); with SN12C it was > 100 µM (inactive); with SF-295, > 100 µM (inactive); in the test with SK-MEL-5 it was > 100 µM (inactive). In addition, the GI50 in the test with SK-MEL-2 is > 100 µM (inactive); in the test with OVCAR-8, > 100 µM (inactive); with RXF 393 it was 85.9 µM (inactive); in the test with MDA-MB-435, > 100 µM (inactive); with UACC-62 it was > 100 µM (inactive); in the test on UO-31, > 100 µM (inactive). Further, the GI50 with MOLT-4, in the test with UACC-257, in the test with HL-60, in the test on HOP-92 and with SF-539 was > 100 µM (inactive) throughout.
For `O=[N+]([O-])c1cccc(/N=N/c2c(O)c(S(=O)(=O)O)cc3cc(S(=O)(=O)O)ccc23)c1`, the GI50 in the test on HCT-15 is more than 100 µM; with EKVX it was > 100 µM (inactive); in the test on A549 it was > 100 µM (inactive); with SN12C, > 100 µM (inactive); in the test on SF-295, > 100 µM (inactive); in the test with SK-MEL-5 it was > 100 µM (inactive). The GI50 with SK-MEL-2, in the test on OVCAR-8, in the test on RXF 393, in the test on MDA-MB-435, in the test on UACC-62 and in the test with UO-31 was > 100 µM (inactive) throughout. Besides, the GI50 with MOLT-4, with UACC-257, in the test on HL-60, in the test with HOP-92, in the test on SF-539 and with Malme-3M was > 100 µM (inactive) each time.
